This note sets out measurements from paper PMC5344255, “Design, Synthesis and Biochemical Evaluation of Novel Selective Estrogen Receptor Ligand Conjugates Incorporating an Endoxifen-Combretastatin Hybrid Scaffold” (Biomedicines, 2016).

What all share (type): cell-based
For assay [1], the system named is MCF-7 human breast cancer cells. Briefly: MTT assay for antiproliferative effects in MCF-7. The note with it: for inhibition at 10 µM: MCF7, MCF-7, read-out: growth inhibition. The method, then: (§1) The human breast carcinoma cell line, MCF-7, was purchased from the European Collection of Animal Cell Cultures (ECACC). The cells were maintained in MCF-7 complete medium; consisting of Eagle’s Minimum Essential Medium (MEM) supplemented with 10% (v/v) Foetal Bovine Serum (FBS), 2 mM L-glutamine, 100 μg/mL penicillin/streptomycin and 1% (v/v) non-essential amino acids. Cell cultures were maintained at 37 °C under a humidified atmosphere of 5% CO2/95% O2. The human breast carcinoma cell line, MDA, was purchased from the European Collection of Animal Cell Cultures (ECACC). The cells were maintained in MDA complete medium; consisting of Dulbecco’s Modified Eagle’s Medium (D-MEM) supplemented with 10% (v/v) Foetal Bovine Serum (FBS), 2 mM L-glutamine, 100 μg/mL penicillin/streptomycin. Cell cultures were maintained at 37 °C under a humidified atmosphere of 5% CO2/95% O2. The MTT assay was performed according to the reported protocol. The tetrazolium salt, 3-(4,5-dimethylthiazol-2-yl)-2,5-diphenyltetrazolium bromide (MTT) is taken up only by metabolically active cells and cleaved to form a formazan dye by mitochondrial dehydrogenases. Assays where repeated in three experiments performed in triplicate (unless otherwise stated) and reported results represent the mean value ± standard error mean. Graphs of percentage cell viability versus concentration of the subject compound were processed using PRISM [31].
(Tetrazolium assays rely on reduction of a dye to a coloured formazan, in cell work by metabolically active cells.)

Assay [2] has the same test system. Nature of the assay: Lactate dehydrogenase (LDH) cytotoxicity assay in MCF-7. The note with it: % cell lysis at 10 µM. Here is the method:
(§2) In this assay, the release of cytoplasmic lactate dehydrogenase (LDH) is used as a measure of cell lysis. MCF-7 and MDA-MB-231 cells were seeded at a density of 1 × 10^4 cells/well in a 96-well plate and incubated for 24 h. The cells were then dosed with 2 μL volumes of the test compounds, over the concentration range 1 nM–50 μM. Cytotoxicity was determined using the CytoTox 96 nonradioactive cytotoxicity assay (Promega, Madison, WI, USA) following the manufacturer’s protocol.

Assay [3] deals with MDA-MB-231 human breast cancer cells. Nature of the assay: MTT assay for antiproliferative effects in MDA-MB-231. The note with it: MDA-MB-231, MTT assay. Here is the method:
as §1, with “Cell cultures were maintained at 37 °C under a humidified atmosphere of 5% CO2/95% O2.” left out, “Assays where repeated in three experiments performed in triplicate (unless otherwise stated) and reported results represent the mean value ± standard error mean.” left out

Assay [4] has the same test system. Nature of the assay: Lactate dehydrogenase (LDH) cytotoxicity assay in MDA-MB-231. The settings on record: % cell lysis at 10 μM. The method, then: as §2
Setting [5] is: Homo sapiens, MCF7, MCF-7, MTT assay, mean of at least three experiments in triplicate.
The mark [6] stands for this setting: MCF-7, MTT assay, mean of at least three experiments in triplicate.

Each structure is given as a SMILES string.

In general, IC50 refers to the concentration that gives 50% inhibition. Broadly, the inhibition is the relative decrease from the control value, in per cent.

As to `CCC(=C(c1ccc(O)cc1)c1ccc(OCCN(C)C(=O)/C(=C/c2ccc3c(c2)OCO3)c2ccc(OC)cc2)cc1)c1ccccc1` (mixture of isomers) [Compound 33, (E)-3-Benzo[1,3]dioxol-5-yl-N-(2-{4-[(E/Z)-1-(4-hydroxyphenyl)-2-phenylbut-1-enyl]phenoxy}ethyl)-2-(4-methoxyphenyl)-N-methylacrylamide], the values for the IC50 in assay [1] (setting [5]) and in assay [3] were 1470 nM and 5.23 µM, respectively. The “% Cell Death at 10 μM” value in assay [2] is given as 8%; in assay [4], 0%.

Take `COc1ccc(/C=C(/C(=O)N2CCCCC2)c2cc(OC)c(OC)c(OC)c2)cc1N` [Compound 55, (E)-3-(3-Amino-4-methoxyphenyl)-1-(piperidin-1-yl)-2-(3,4,5-trimethoxyphenyl)prop-2-en-1-one]: the inhibition at 10 µM in assay [1] (Homo sapiens) was found to be 34%.

Turning to `CCC(=C(c1ccc(O)cc1)c1ccc(OCCN(C)C(=O)/C(=C/c2ccc(OC)c(N)c2)c2cc(OC)c(OC)c(OC)c2)cc1)c1ccc(O)cc1` (mixture of isomers) [Compound 46, (E)-3-(3-Amino-4-methoxyphenyl)-N-(2-{4-[(E/Z)-1,2-bis-(4-hydroxyphenyl)but-1-enyl]phenoxy}ethyl)-N-methyl-2-(3,4,5-trimethoxyphenyl) acrylamide], the results for the IC50 in assay [1] (setting [5]) and in assay [3] were 6150 nM and 49.7 µM, respectively. In addition, the results for the “% Cell Death at 10 μM” value in assay [2] and in assay [4] were 6% and 0%, respectively.

`COc1ccc(/C=C(/C(=O)O)c2cc(OC)c(OC)c(OC)c2)cc1` [Compound 14]: the figures for the IC50 in assay [1] (setting [5]) and in assay [1] (setting [6]) were less than 10000 nM and 7800 nM, respectively.

As for `COc1ccc(/C=C(/C(=O)N2CCCC2)c2cc(OC)c(OC)c(OC)c2)cc1N` [Compound 54, (E)-3-(3-Amino-4-methoxyphenyl)-1-(pyrrolidin-1-yl)-2-(3,4,5-trimethoxyphenyl)prop-2-en-1-one], the IC50 in assay [1] (setting [5]) is greater than 50000 nM.

As for `CCC(=C(c1ccc(O)cc1)c1ccc(OCCN(C)C(=O)/C(=C/c2ccc(C)cc2)c2cc(OC)c(OC)c(OC)c2)cc1)c1ccc(O)cc1` (mixture of isomers) [Compound 38, (E)-N-(2-{4-[(E/Z)-1,2-Bis-(4-hydroxyphenyl)but-1-enyl]phenoxy}ethyl)-N-methyl-3-p-tolyl-2-(3,4,5-trimethoxyphenyl)acrylamide], the midpoint of inhibition in assay [1] (setting [5]), the IC50, lay at 372 nM. Also, the “% Cell Death at 10 μM” value in assay [2] is 12%.

On to `CCC(=C(c1ccc(O)cc1)c1ccc(OCCN(C)C(=O)/C(=C/c2ccc(OC)c(F)c2)c2cc(OC)c(OC)c(OC)c2)cc1)c1ccc(O)cc1` (mixture of isomers) [Compound 44, (E)-N-(2-{4-[(E/Z)-1,2-Bis-(4-hydroxyphenyl)but-1-enyl]phenoxy}ethyl)-3-(3-fluoro-4-methoxyphenyl)-N-methyl-2-(3,4,5-trimethoxyphenyl)acrylamide], for which the IC50 in assay [1] (setting [5]) stood at 194 nM; in assay [3], 1.85 µM. The “% Cell Death at 10 μM” value was 10% in assay [2] and 14% in assay [4].

Regarding `CCC(=C(c1ccc(O)cc1)c1ccc(OCCN(C)C(=O)/C(=C/c2ccc(OC)cc2)c2cc(OC)c(OC)c(OC)c2)cc1)c1ccc(O)cc1` (mixture of isomers) [Compound 30, (E)-N-(2-{4-[(E/Z)-1,2-Bis-(4-hydroxyphenyl)but-1-enyl]phenoxy}ethyl)-3-(4-methoxyphenyl)-N-methyl-2-(3,4,5-trimethoxyphenyl)acrylamide], the IC50 in assay [1] (setting [5]) was 43 nM; in assay [3] it was 6.29 µM. The “% Cell Death at 10 μM” value in assay [2] was determined as 19%; in assay [4] it was 7%.

In turn, `COc1ccc(/C=C(/C(=O)O)c2cc(OC)c(OC)c(OC)c2)cc1F` [Compound 15] returned an IC50 in assay [1] (setting [5]) of 55100 nM.

`CCC(=C(c1ccc(O)cc1)c1ccc(OCCN(C)C(=O)/C(=C/c2ccc(SC)cc2)c2cc(OC)c(OC)c(OC)c2)cc1)c1ccc(O)cc1` (mixture of isomers) [Compound 40, (E)-N-(2-{4-[(E/Z)-1,2-Bis-(4-hydroxyphenyl)but-1-enyl]phenoxy}ethyl)-N-methyl-3-(4-methylsulfanylphenyl)-2-(3,4,5-trimethoxyphenyl)acrylamide] showed an IC50 in assay [1] (setting [5]) of 64 nM. In addition, the “% Cell Death at 10 μM” value in assay [2] is 2%.

As to `COc1ccc(/C=C(/C(=O)O)c2cc(OC)c(OC)c(OC)c2)cc1O` [Compound 13], the IC50 in assay [1] (setting [5]) was found to be 120 nM. This lies in the sub-micromolar range.

For the compound `COc1ccc(/C=C(/C(=O)N2CCCCC2)c2cc(OC)c(OC)c(OC)c2)cc1O` [Compound 49, (E)-3-(3-hydroxy-4-methoxyphenyl)-1-(piperidin-1-yl)-2-(3,4,5-trimethoxyphenyl)prop-2-en-1-one], the IC50 in assay [1] (setting [5]) was greater than 50000 nM.

As to `CCC(=C(c1ccc(O)cc1)c1ccc(OCCN(C)C(=O)/C(=C/c2ccc3c(c2)OCO3)c2ccc(OC)cc2)cc1)c1ccc(O)cc1` (mixture of isomers) [Compound 34, (E)-3-Benzo[1,3]dioxol-5-yl-N-(2-{4-[(E/Z)-1,2-bis-(4-hydroxyphenyl)but-1-enyl]phenoxy}ethyl)-2-(4-methoxyphenyl)-N-methylacrylamide], the IC50 in assay [1] (setting [5]) amounted to 49 nM; in assay [3] it was 0.68 µM. In addition, the entries for the “% Cell Death at 10 μM” value in assay [2] and in assay [4] were 6% and 16%, respectively.

`COc1ccc(/C(=C\c2cc(OC)c(OC)c(OC)c2)C(=O)N2CCCC2)cc1` [Compound 48, (E)-2-(4-methoxyphenyl)-1-(pyrrolidin-1-yl)-3-(3,4,5-trimethoxyphenyl)prop-2-en-1-one] came in with an IC50 in assay [1] (setting [5]) greater than 50000 nM.

Take `CCC(=C(c1ccc(O)cc1)c1ccc(OCCN(C)C(=O)/C(=C/c2ccc(C)cc2)c2cc(OC)c(OC)c(OC)c2)cc1)c1ccccc1` (mixture of isomers) [Compound 37, (E)-N-(2-{4-[(E/Z)-1-(4-Hydroxyphenyl)-2-phenylbut-1-enyl]phenoxy}ethyl)-N-methyl-3-p-tolyl-2-(3,4,5-trimethoxyphenyl)acrylamide]: the IC50 in assay [1] (setting [5]) was 1750 nM; in assay [1] (Homo sapiens, MCF7, MCF-7, MTT assay, values in nM), 3.62 nM. Also, in assay [2], the “% Cell Death at 10 μM” value was found to be 2%.

The compound `COc1ccc(/C(=C\c2ccc3c(c2)OCO3)C(=O)O)cc1` [Compound 25] gave an IC50 in assay [1] (setting [6]) greater than 50000 nM.

The compound `CCC(=C(c1ccc(O)cc1)c1ccc(OCCN(C)C(=O)/C(=C/c2ccc(SC)cc2)c2cc(OC)c(OC)c(OC)c2)cc1)c1ccccc1` (mixture of isomers) [Compound 39, (E)-N-(2-{4-[(E/Z)-1-(4-Hydroxyphenyl)-2-phenylbut-1-enyl]phenoxy}ethyl)-N-methyl-3-(4-methylsulfanylphenyl)-2-(3,4,5-trimethoxyphenyl) acrylamide] displayed an IC50 in assay [1] (setting [5]) of 790 nM. For the same compound, the “% Cell Death at 10 μM” value in assay [2] is listed as 3%.

Regarding `COc1ccc(/C=C(/C(=O)N2CCCCC2)c2cc(OC)c(OC)c(OC)c2)cc1` [Compound 53, (E)-3-(4-Methoxyphenyl)-1-(piperidin-1-yl)-2-(3,4,5-trimethoxyphenyl)prop-2-en-1-one], in assay [1] (Homo sapiens), the inhibition at 10 µM is 35%.

With `COc1ccc(/C(=C\c2cc(OC)c(OC)c(OC)c2)C(=O)O)cc1` [Compound 23], the IC50 in assay [1] (setting [5]) was greater than 50000 nM.

As for `COc1ccc(/C=C(/C(=O)N2CCCC2)c2cc(OC)c(OC)c(OC)c2)cc1` [Compound 52, (E)-3-(4-Methoxyphenyl)-1-(pyrrolidin-1-yl)-2-(3,4,5-trimethoxyphenyl)prop-2-en-1-one], in assay [1] (setting [5]), the IC50 was greater than 50000 nM.

In assay [3], `CC/C(=C(\c1ccc(O)cc1)c1ccc(OCCN(C)C)cc1)c1ccccc1` [4-Hydroxytamoxifen, reference compound] showed an IC50 of 18 µM. Besides, in assay [4], the “% Cell Death at 10 μM” value came out at 0%.
